From patent US20260130851A1, “PLINABULIN MICELLE COMPOSITION AND PREPARATION METHOD THEREFOR” (priority 2022, published 2026)
Converted amounts (≈) assume the structure as drawn. Like-named read-outs stand apart in the source and are kept apart here.

Assay: Equilibrium solubility of Plinabulin in propylene glycol-D5W diluents (HPLC)
Type: physicochemical
Details: for Control Group - Absolute Ethanol Test Concentration: 25° C.
Protocol: Corresponding propylene glycol-D5W injections were prepared. The preparation process was as follows: • Diluent 1 (corresponding to a dilution ratio of 1:20). Weigh about 6 g of propylene glycol, place it in a beaker, add 200 ml of D5W injection, and mix well. • Diluent 2 (corresponding to a dilution ratio of 1:30). Weigh about 4 g of propylene glycol, place it in a beaker, add 200 ml of D5W injection, and mix well. • Diluent 3 (corresponding to a dilution ratio of 1:50): Weigh about 2.4 g of propylene glycol, place it in a beaker, add 200 ml of D5W injection, and mix well.
Acceptance criteria: The concentration of Plinabulin in each solution was determined until there was no significant difference between two consecutive determinations, i.e., equilibrium solubility.
Test solutions were taken at different time points, filtered through a 0.45 μm glass fiber membrane, and injected into the high-performance liquid chromatography system. The equilibrium solubility of Plinabulin in solutions with different ratios at various time points was calculated by the external standard method.

In the case of `CC(C)(C)c1[nH]cnc1/C=c1\[nH]c(=O)/c(=C/c2ccccc2)[nH]c1=O` [Plinabulin, (3Z,6Z)-3-[(5-tert-butyl-1H-imidazol-4-yl)methylene]-6-(phenylmethylene)-2,5-piperazinedione], the “Control Group - Absolute Ethanol Test Concentration” value (“Control Group” for short) (Test Sample 1 (49.5 h), Diluent 1 (about 6 g propylene glycol + 200 ml D5W, 1:20), 100 rpm) is reported as 0.152 µg/mL, the “Control Group” value (Test Sample 2 (48.5 h), Diluent 2 (about 4 g propylene glycol + 200 ml D5W, 1:30), 100 rpm) is reported as 0.125 µg/mL and the “Control Group” value (Test Sample 3 (49 h), Diluent 3 (about 2.4 g propylene glycol + 200 ml D5W, 1:50), 100 rpm) is reported as 0.113 µg/mL. The solubility thermodynamic at 49.5 h (propylene glycol-D5W diluent, 25 °C, saline or isotonic, thermodynamic from solid, Test Sample 1 (1:20) dilution level, 49.5 h, read-out: Test Concentration (equilibrium solubility)) was 0.152 µg/mL (≈ 0.452 µM), the solubility thermodynamic at 72 h (propylene glycol-D5W diluent, 25 °C, saline or isotonic, thermodynamic from solid, Test Sample 1 (1:20) dilution level, 72 h, read-out: Test Concentration (equilibrium solubility)) was 0.145 µg/mL (≈ 0.431 µM) and the solubility thermodynamic at 94 h (propylene glycol-D5W diluent, 25 °C, saline or isotonic, thermodynamic from solid, Test Sample 1 (1:20) dilution level, 94 h, read-out: Test Concentration (equilibrium solubility)) was 0.143 µg/mL (≈ 0.425 µM). It also gave a solubility thermodynamic at 49.5 h (propylene glycol-D5W diluent, 25 °C, saline or isotonic, thermodynamic from solid, Test Sample 1 (49.5 h), Diluent 1 (about 6 g propylene glycol + 200 ml D5W, 1:20), 100 rpm, read-out: Control Group - Diluent Test Concentration) of 0.155 µg/mL, a solubility thermodynamic at 48.5 h (propylene glycol-D5W diluent, 25 °C, saline or isotonic, thermodynamic from solid, Test Sample 2 (1:30) dilution level, 48.5 h, read-out: Test Concentration (equilibrium solubility)) of 0.125 µg/mL (≈ 0.372 µM) and a solubility thermodynamic at 73 h (propylene glycol-D5W diluent, 25 °C, saline or isotonic, thermodynamic from solid, Test Sample 2 (1:30) dilution level, 73 h, read-out: Test Concentration (equilibrium solubility)) of 0.112 µg/mL (≈ 0.333 µM). It also gave a solubility thermodynamic at 94.5 h (propylene glycol-D5W diluent, 25 °C, saline or isotonic, thermodynamic from solid, Test Sample 2 (1:30) dilution level, 94.5 h, read-out: Test Concentration (equilibrium solubility)) of 0.113 µg/mL (≈ 0.336 µM), a solubility thermodynamic at 48.5 h (propylene glycol-D5W diluent, 25 °C, saline or isotonic, thermodynamic from solid, Test Sample 2 (48.5 h), Diluent 2 (about 4 g propylene glycol + 200 ml D5W, 1:30), 100 rpm, read-out: Control Group - Diluent Test Concentration) of 0.13 µg/mL and a solubility thermodynamic at 49 h (propylene glycol-D5W diluent, 25 °C, saline or isotonic, thermodynamic from solid, Test Sample 3 (1:50) dilution level, 49 h, read-out: Test Concentration (equilibrium solubility)) of 0.113 µg/mL (≈ 0.336 µM). It also gave a solubility thermodynamic at 73.5 h (propylene glycol-D5W diluent, 25 °C, saline or isotonic, thermodynamic from solid, Test Sample 3 (1:50) dilution level, 73.5 h, read-out: Test Concentration (equilibrium solubility)) of 0.095 µg/mL (≈ 0.282 µM), a solubility thermodynamic at 96 h (propylene glycol-D5W diluent, 25 °C, saline or isotonic, thermodynamic from solid, Test Sample 3 (1:50) dilution level, 96 h, read-out: Test Concentration (equilibrium solubility)) of 0.134 µg/mL (≈ 0.398 µM) and a solubility thermodynamic at 120 h (propylene glycol-D5W diluent, 25 °C, saline or isotonic, thermodynamic from solid, Test Sample 3 (1:50) dilution level, 120 h, read-out: Test Concentration (equilibrium solubility)) of 0.135 µg/mL (≈ 0.401 µM). The solubility thermodynamic at 49 h (propylene glycol-D5W diluent, 25 °C, saline or isotonic, thermodynamic from solid, Test Sample 3 (49 h), Diluent 3 (about 2.4 g propylene glycol + 200 ml D5W, 1:50), 100 rpm, read-out: Control Group - Diluent Test Concentration) was 0.117 µg/mL.
